Results as given in patent US12097241B2, “Methods of treating kidney failure, and/or improving or stablizing renal function using modified relaxin polypeptides” (BRISTOL-MYERS SQUIBB COMPANY, priority 2017, dated 2024).
pEC50: −log10 of the molar value. Read-outs that look alike come from different tables or passages of the source.

Target: T1, human RXFP1 receptor (Homo sapiens, UniProt Q9HBX9)
T1 construct: expressed in transfected cells
T1 sequence (Q9HBX9 1-757): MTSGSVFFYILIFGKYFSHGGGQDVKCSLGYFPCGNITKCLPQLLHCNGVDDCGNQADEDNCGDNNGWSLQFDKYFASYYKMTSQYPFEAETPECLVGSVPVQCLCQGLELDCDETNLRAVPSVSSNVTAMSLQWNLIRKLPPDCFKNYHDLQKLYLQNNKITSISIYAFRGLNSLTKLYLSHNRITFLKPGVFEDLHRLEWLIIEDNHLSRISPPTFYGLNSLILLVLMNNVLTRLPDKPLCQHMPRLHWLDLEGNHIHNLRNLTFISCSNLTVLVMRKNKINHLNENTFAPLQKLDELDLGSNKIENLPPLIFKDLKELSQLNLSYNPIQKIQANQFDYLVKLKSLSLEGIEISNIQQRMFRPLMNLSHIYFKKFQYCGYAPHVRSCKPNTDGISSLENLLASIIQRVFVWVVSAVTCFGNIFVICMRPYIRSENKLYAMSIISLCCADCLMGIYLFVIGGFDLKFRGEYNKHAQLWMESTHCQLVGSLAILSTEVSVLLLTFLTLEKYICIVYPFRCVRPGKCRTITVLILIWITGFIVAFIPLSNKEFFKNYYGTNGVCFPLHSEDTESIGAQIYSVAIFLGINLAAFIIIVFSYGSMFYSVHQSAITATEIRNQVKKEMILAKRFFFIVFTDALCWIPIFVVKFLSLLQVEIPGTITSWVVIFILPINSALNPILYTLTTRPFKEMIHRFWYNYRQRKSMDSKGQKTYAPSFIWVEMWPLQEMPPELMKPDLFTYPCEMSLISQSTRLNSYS
Experiment: Intracellular cAMP accumulation assay
Format: cell-based

EC50 (CHO-K1 cells stably expressing human RXFP1, 10 min at 37° C., HTRF cAMP, average, read-out: hRXFP1/CHO-K1 cAMP EC50 (nM, avg)) [nM]	SMILES	pEC50
	CC[C@H](C)[C@@H]1NC(=O)[C@H](C)NC(=O)[C@H]([C@@H](C)CC)NC(=O)[C@H](CCC(N)=O)NC(=O)[C@H](C)NC(=O)[C@H](CCCNC(=N)N)NC(=O)[C@H](C(C)C)NC(=O)[C@H](CC(C)C)NC(=O)[C@H](CCC(=O)O)NC(=O)[C@H](CCCNC(=N)N)NC(=O)CNC(=O)[C@@H](NC(=O)[C@H](CC(C)C)NC(=O)[C@H](CCCCN)NC(=O)[C@@H](NC(=O)[C@@H](NC(=O)[C@H](CCC(=O)O)NC(=O)[C@H](CCC(=O)O)NC(=O)[C@H](CCSC)NC(=O)[C@H](Cc2c[nH]c3ccccc23)NC(=O)[C@H](CO)NC(=O)[C@H](C)N)C(C)C)[C@@H](C)CC)CSSC[C@@H]2NC(=O)[C@@H](NC(=O)[C@H](CCCCN)NC(=O)[C@H](CC(N)=O)NC(=O)[C@H](C)NC(=O)[C@H](CC(C)C)NC(=O)[C@H](C)NC(=O)[C@H](CO)NC(=O)[C@H](Cc3ccc(O)cc3)NC(=O)[C@H](CC(C)C)NC(=O)[C@@H](N)Cc3ccc(C(C)=NOCCNC(=O)[C@H](CCCCN)NC(=O)[C@H](CCCCN)NC(=O)[C@H](CO)NC(=O)CNC(=O)CNC(=O)[C@H](CO)NC(=O)CNC(=O)CNC(=O)[C@H](CCC(=O)O)NC(=O)CCCCCCCCCCCCC(=O)O)cc3)CSSC[C@H](NC(=O)CNC(=O)[C@H](C(C)C)NC(=O)[C@H](Cc3c[nH]cn3)NC2=O)C(=O)N[C@@H]([C@@H](C)O)C(=O)N[C@@H](CCCCN)C(=O)N[C@@H](CCCNC(=N)N)C(=O)N[C@@H](CO)C(=O)N[C@@H](CC(C)C)C(=O)N[C@@H](C)C(=O)N[C@@H](CCCNC(=N)N)C(=O)N[C@@H](Cc2ccccc2)C(=O)N[C@H](C(=O)O)CSSC[C@@H](C(=O)NCC(=O)N[C@@H](CCSC)C(=O)N[C@@H](CO)C(=O)N[C@H](C(=O)N[C@@H](Cc2c[nH]c3ccccc23)C(=O)N[C@@H](CO)C(=O)O)[C@@H](C)O)NC1=O [AQ1-KKSGGSGG-Glu^α-C13-COOH]	9.57
	CC[C@H](C)[C@@H]1NC(=O)[C@H](C)NC(=O)[C@H]([C@@H](C)CC)NC(=O)[C@H](CCC(N)=O)NC(=O)[C@H](C)NC(=O)[C@H](CCCNC(=N)N)NC(=O)[C@H](C(C)C)NC(=O)[C@H](CC(C)C)NC(=O)[C@H](CCC(=O)O)NC(=O)[C@H](CCCNC(=N)N)NC(=O)CNC(=O)[C@@H](NC(=O)[C@H](CC(C)C)NC(=O)[C@H](CCCCN)NC(=O)[C@@H](NC(=O)[C@@H](NC(=O)[C@H](CCC(=O)O)NC(=O)[C@H](CCC(=O)O)NC(=O)[C@H](CCSC)NC(=O)[C@H](Cc2c[nH]c3ccccc23)NC(=O)[C@H](CO)NC(=O)[C@H](C)N)C(C)C)[C@@H](C)CC)CSSC[C@@H]2NC(=O)[C@@H](NC(=O)[C@H](CCCCN)NC(=O)[C@H](CC(N)=O)NC(=O)[C@H](C)NC(=O)[C@H](CC(C)C)NC(=O)[C@H](C)NC(=O)[C@H](CO)NC(=O)[C@H](Cc3ccc(O)cc3)NC(=O)[C@H](CC(C)C)NC(=O)[C@@H](N)Cc3ccc(C(C)=NOCCNC(=O)[C@H](CCCCN)NC(=O)[C@H](CCCCN)NC(=O)[C@H](CO)NC(=O)CNC(=O)CNC(=O)[C@H](CO)NC(=O)CNC(=O)CNC(=O)CC[C@H](NC(=O)CCCCCCCCCCCCC(=O)O)C(=O)O)cc3)CSSC[C@H](NC(=O)CNC(=O)[C@H](C(C)C)NC(=O)[C@H](Cc3c[nH]cn3)NC2=O)C(=O)N[C@@H]([C@@H](C)O)C(=O)N[C@@H](CCCCN)C(=O)N[C@@H](CCCNC(=N)N)C(=O)N[C@@H](CO)C(=O)N[C@@H](CC(C)C)C(=O)N[C@@H](C)C(=O)N[C@@H](CCCNC(=N)N)C(=O)N[C@@H](Cc2ccccc2)C(=O)N[C@H](C(=O)O)CSSC[C@@H](C(=O)NCC(=O)N[C@@H](CCSC)C(=O)N[C@@H](CO)C(=O)N[C@H](C(=O)N[C@@H](Cc2c[nH]c3ccccc23)C(=O)N[C@@H](CO)C(=O)O)[C@@H](C)O)NC1=O [AQ1-KKSGGSGG-Glu^γ-C13-COOH]	9.47
0.32	CC[C@H](C)[C@@H]1NC(=O)[C@H](C)NC(=O)[C@H]([C@@H](C)CC)NC(=O)[C@H](CCC(N)=O)NC(=O)[C@H](C)NC(=O)[C@H](CCCNC(=N)N)NC(=O)[C@H](C(C)C)NC(=O)[C@H](CC(C)C)NC(=O)[C@H](CCC(=O)O)NC(=O)[C@H](CCCNC(=N)N)NC(=O)CNC(=O)[C@@H](NC(=O)[C@H](CC(C)C)NC(=O)[C@H](CCCCN)NC(=O)[C@@H](NC(=O)[C@@H](NC(=O)[C@H](CCC(=O)O)NC(=O)[C@H](CCC(=O)O)NC(=O)[C@H](CCSC)NC(=O)[C@H](Cc2c[nH]c3ccccc23)NC(=O)[C@H](CO)NC(=O)[C@H](C)N)C(C)C)[C@@H](C)CC)CSSC[C@@H]2NC(=O)[C@@H](NC(=O)[C@H](CCCCN)NC(=O)[C@H](CC(N)=O)NC(=O)[C@H](C)NC(=O)[C@H](CC(C)C)NC(=O)[C@H](C)NC(=O)[C@H](CO)NC(=O)[C@H](Cc3ccc(O)cc3)NC(=O)[C@H](CC(C)C)NC(=O)[C@@H](N)Cc3ccc(/C(C)=N/OCCNC(=O)CN(C)C(=O)CN(C)C(=O)CN(C)C(=O)CN(C)C(=O)[C@H](CO)NC(=O)CC[C@H](NC(=O)CCCCCCCCCCCCC(=O)O)C(=O)O)cc3)CSSC[C@H](NC(=O)CNC(=O)[C@H](C(C)C)NC(=O)[C@H](Cc3c[nH]cn3)NC2=O)C(=O)N[C@@H]([C@@H](C)O)C(=O)N[C@@H](CCCCN)C(=O)N[C@@H](CCCNC(=N)N)C(=O)N[C@@H](CO)C(=O)N[C@@H](CC(C)C)C(=O)N[C@@H](C)C(=O)N[C@@H](CCCNC(=N)N)C(=O)N[C@@H](Cc2ccccc2)C(=O)N[C@H](C(=O)O)CSSC[C@@H](C(=O)NCC(=O)N[C@@H](CCSC)C(=O)N[C@@H](CO)C(=O)N[C@H](C(=O)N[C@@H](Cc2c[nH]c3ccccc23)C(=O)N[C@@H](CO)C(=O)O)[C@@H](C)O)NC1=O [AQ1-Sar-Sar-Sar-Sar-Ser-Glu^γ-C13-COOH]	
	CC[C@H](C)[C@@H]1NC(=O)[C@H](C)NC(=O)[C@H]([C@@H](C)CC)NC(=O)[C@H](CCC(N)=O)NC(=O)[C@H](C)NC(=O)[C@H](CCCNC(=N)N)NC(=O)[C@H](C(C)C)NC(=O)[C@H](CC(C)C)NC(=O)[C@H](CCC(=O)O)NC(=O)[C@H](CCCNC(=N)N)NC(=O)CNC(=O)[C@@H](NC(=O)[C@H](CC(C)C)NC(=O)[C@H](CCCCN)NC(=O)[C@@H](NC(=O)[C@@H](NC(=O)[C@H](CCC(=O)O)NC(=O)[C@H](CCC(=O)O)NC(=O)[C@H](CCSC)NC(=O)[C@H](Cc2c[nH]c3ccccc23)NC(=O)[C@H](CO)NC(=O)[C@H](C)N)C(C)C)[C@@H](C)CC)CSSC[C@@H]2NC(=O)[C@@H](NC(=O)[C@H](CCCCN)NC(=O)[C@H](CC(N)=O)NC(=O)[C@H](C)NC(=O)[C@H](CC(C)C)NC(=O)[C@H](C)NC(=O)[C@H](CO)NC(=O)[C@H](Cc3ccc(O)cc3)NC(=O)[C@H](CC(C)C)NC(=O)[C@@H](N)Cc3ccc(/C(C)=N/OCCNC(=O)CCC(=O)NCCCNCCCCNCCCNC(=O)CC[C@H](NC(=O)CCCCCCCCCCCCCC(=O)O)C(=O)O)cc3)CSSC[C@H](NC(=O)CNC(=O)[C@H](C(C)C)NC(=O)[C@H](Cc3c[nH]cn3)NC2=O)C(=O)N[C@@H]([C@@H](C)O)C(=O)N[C@@H](CCCCN)C(=O)N[C@@H](CCCNC(=N)N)C(=O)N[C@@H](CO)C(=O)N[C@@H](CC(C)C)C(=O)N[C@@H](C)C(=O)N[C@@H](CCCNC(=N)N)C(=O)N[C@@H](Cc2ccccc2)C(=O)N[C@H](C(=O)O)CSSC[C@@H](C(=O)NCC(=O)N[C@@H](CCSC)C(=O)N[C@@H](CO)C(=O)N[C@H](C(=O)N[C@@H](Cc2c[nH]c3ccccc23)C(=O)N[C@@H](CO)C(=O)O)[C@@H](C)O)NC1=O [AQ1-Spermine-Glu^γ-C14-COOH]	9.41
